In patent US10273313B2, “Multimeric mannosides, a process for preparing the same and their uses as a drug” (CENTRE NATIONAL DE LA RECHERCHE SCIENTIFIQUE, priority 2012, dated 2019):
“Also recorded” adds a separate entry of the source.

Experiments:
[1] = test system: AIEC strain LF82 adhesion to T84 intestinal epithelial cells; assay: Adhesion assay on T84 cells with thiazolylaminomannosides (Example 22.3); format: cell-based, Escherichia coli; settings: for inhibition at 10 µM: Escherichia coli, Epithelial cell, read-out: Inhibition of adhesion; for Inhibitory effect on adhesion: 100 nM
Method: T84 Intestinal Epithelial cells (overexpressing the receptor CEACAM6) were beforehand incubated for 1 h with the synthetic thiazolylaminomannosides 6-20 (examples 3-17) at different concentrations. Each compound was tested four times at concentrations of 0.1, 1, 10 and 100 μM.
The cells were then infected in the presence of inhibitory compounds by the AIEC strain of reference LF82 for 3 hours at a multiplicity of infection of 10 bacteria to a cell. After 3 h of incubation, the monolayer was washed and the number of AIEC bacteria associated with cells was counted. The level of adhesion of AIEC LF82 strain in the presence of inhibitors (residual adhesion) was expressed relatively to the level of adherence in the absence of any treatment (considered 100%) (FIG. 10).

[2] = test system: AIEC LF82 bacteria adhesion to T84 intestinal epithelial cells; assay: Adhesion assay on T84 cells, pre-, co- and post-incubation protocols (Example 21.2); format: cell-based, Escherichia coli; settings: pre-incubation assay
Method: E. coli strain LF82 was isolated from a chronic ileal lesion of a patient with Crohn's disease (CD). Bacteria were grown routinely in Luria-Bertani (LB) broth overnight at 37° C. Intestinal epithelial cells T84 derived from colonic adenocarcinoma were maintained in an atmosphere containing 5% CO2 at 37° C. in DMEM/F12 (50/50) medium supplemented with 10% (v/v) heat-inactivated fetal calf serum (FCS), 1% L-glutamine, 100 000 U·l^−1 penicillin, 100 mg·l^−1 streptomycin, 25 μg·l^−1 amphotericin B.
T84 were seeded in 48-well plates at a concentration of 1.5×10^5 cells per well and grown for 48 h. AIEC LF82 bacteria were incubated 1 h with each mannoside prior the cell infection (pre-incubation protocol) or they were added simultaneously onto the cells (co-incubation protocol) in complete medium without antibiotics, containing heat inactivated fetal calf serum (FCS). Heptyl-mannose or compound 2 (example 1) were tested at a dose of 100; 10; 1 or 0.1 μM. D-D-mannose was tested at a dose of 10 000; 1 000; 100 or 10 μM and compound 1 (example 2bis) was tested at a concentration of 500; 100; 10 or 1 μM. Cells were infected with AIEC LF82 bacteria at a multiplicity of infection (MOI) of 10 bacteria per cell for 3 h at 37° C. For the post-incubation protocol, mannosides were incubated with cells for 3 h after bacterial infection. A washing step was realized before this post-incubation to eliminate non-adherent bacteria. Monolayers were washed in phosphate-buffered saline (PBS; pH 7.2) and cells were then lysed with 1% Triton X-100 in deionized water. Samples were diluted and plated onto Luria Bertani agar plates to determine the number of colony-forming units (CFU) recovered from the lysed monolayers. Results were expressed as percentages of residual adhesion, considering adhesion level of AIEC LF82 without mannoside treatment as 100%.

[3] = test system: AIEC LF82 bacteria on colonic tissue from transgenic mice expressing human CEACAM6; assay: Ex-vivo adhesion assay on colonic tissue of CEABAC10 mice; set-up: species or system CEABAC10 transgenic mice; settings: 1 h
Method: E. coli strain LF82 was isolated from a chronic ileal lesion of a patient with Crohn's disease (CD). Bacteria were grown routinely in Luria-Bertani (LB) broth overnight at 37° C.
Adhesion assay of AIEC LF82 bacteria were performed using colonic tissue from transgenic mice expressing the human CEACAM6 protein (C. H. Chan, C. P. Stanners “Novel mouse model for carcinoembryonic antigen-based therapy”, Mol Ther. 2004; 9, 775-785). Briefly, 10 to 12-week-old FVB/N CEABAC10 transgenic mice were anesthetized, euthanized by cervical dislocation and colons were removed. Colons were washed twice in phosphate buffer saline (PBS) and were segmented in 4 independent loops of ≈0.6 cm. A volume of 100 μL of LF82 bacteria at 2×10^6 bacteria/mL in PBS or of a mix of LF82 bacteria+D-mannose (1 μmol and 10 μmol) or compound 13 (0.1 μmol and 0.01 μmol) were injected into the loops. Loops were incubated 1 h at 37° C. in an atmosphere containing 5% of CO2, and then opened and washed 4 times in PBS. Tissues were homogenized, appropriately diluted and plated onto Luria-Bertani agar plates containing ampicillin (100 μg/mL) and erythromycin (20 μg/mL) to select AIEC LF82 bacteria.
Entire colons from CEABAC10 mice were collected and washed two times with PBS. The colon was divided in 4 isolated loops and 100 μL of a bacterial suspension containing […] bacteria/mL with or without inhibitory compounds were injected into the loops. D-mannose was tested at a dose of 1 and 10 μmol and monovalent 13 was tested at a dose of 0.01 and 0.1 μmol. After a 1 h-period of incubation, samples were extensively washed and homogenized to numerate adherent bacteria. Bacterial adhesion was expressed as percentages of residual adhesion (100% corresponds to the adhesion in absence of any compound).

FimH = FimH (Escherichia coli, UniProt P08191); format: binding; settings: competitive ELISA; for Concentration blocking FimH binding towards oligomannose glycans: RNAseB substrate
Chain of FimH (P08191 22-300): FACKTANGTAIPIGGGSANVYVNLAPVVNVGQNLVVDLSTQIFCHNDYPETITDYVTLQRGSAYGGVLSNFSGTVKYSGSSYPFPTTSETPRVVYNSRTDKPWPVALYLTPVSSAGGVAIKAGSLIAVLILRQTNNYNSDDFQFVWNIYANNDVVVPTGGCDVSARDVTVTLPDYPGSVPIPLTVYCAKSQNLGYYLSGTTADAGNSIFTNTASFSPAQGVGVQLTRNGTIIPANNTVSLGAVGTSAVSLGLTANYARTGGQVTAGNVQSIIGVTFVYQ
Method: Journal of the American Society for Mass Spectrometry, 2009. […] Tested compounds were added to wells following with FimH treatment.
Plates were coated with 100 μl of 10 mg/ml solution of RNAse-B in 100 mM carbonate/bicarbonate buffer pH 9.6. […] 2 h. Then washed three times with 10 mM PBS containing 0.05% Tween-20. […] Wells were washed three times with 10 mM PBS+0.05% Tween-20. 100 μl of anti-body conjugated to horseradish peroxidase (1:5000) was added in buffer and incubated for 1 h at room temperature. Then washed three times with 10 mM PBS+0.05% Tween-20. Added 100 μl of TMB and incubated in dark for 2-5 min. The reaction was stopped with 100 μl/well 1N sulfuric acid. Plate absorbance was analyzed at 450 nm using microplate reader.

[4] = test system: CD-associated E. coli strain AIEC LF82; assay: Hemagglutination inhibition (HAI) with AIEC LF82, guinea pig erythrocytes; format: cell-based, Escherichia coli
Method: AIEC adhesion to the gut occurs through the binding of FimH adhesins to the mannosylated glycans of intestinal cells. This scenario was first mimicked here with the highly mannosylated glycocalyx of guinea pig erythrocytes.
A two-fold dilution series of the antagonists was added to wells containing guinea pig erythrocytes and AIEC LF82 bacteria. The formation of the cross-linked network (hemagglutination) due to the interaction of the E. coli FimH adhesins with the glycocalyx of the erythrocytes was prevented at a certain concentration of inhibitors. The lowest concentration at which hemagglutination is still inhibited is defined as the inhibition titer of the antagonist. HM was included in the assay to obtain a relative inhibitory concentration (rIC) for the antagonists by dividing the inhibitory concentration (IC) of the substance of interest by the value for HM. In fact, rICs are more accurate than rough inhibition titers to compare the potency of antagonists evaluated in different assays.

## O=C(c1ccc(Br)cc1)c1cnc(N[C@H]2O[C@H](CO)[C@@H](O)[C@H](O)[C@@H]2O)s1 [Compound 19, 2-(α-D-mannopyranosyl)amino-5-(4-bromobenzoyl)thiazole]
[1]
  inhibition at 10 µM: > 90%

## OC[C@H]1O[C@H](O)[C@@H](O)[C@@H](O)[C@@H]1O [D-mannose, α-D-mannose, reference compound]
[2]
  Concentration leading to decreased adhesion levels of at least 50%: 1000 µM
[3]; 1 μmol
  Bacterial adhesion: no decrease
[3]; dose of 10 μmol
  Bacterial adhesion (residual): 41%
[1]; 1000 μM
  Residual adhesion: 51.6%

## O=C(c1ccsc1)c1cnc(N[C@H]2OC(CO)[C@@H](O)[C@H](O)C2O)s1 (mixture of isomers) [Compound 12, 2-(α-D-mannopyranosyl)amino-5-(thiophene-3-carbonyl)thiazole]
FimH
  Concentration blocking FimH binding towards oligomannose glycans: 50 nM

## O=C(c1ccc([N+](=O)[O-])cc1)c1cnc(N[C@H]2O[C@H](CO)[C@@H](O)[C@H](O)[C@@H]2O)s1 [Compound 10, 2-(α-D-mannopyranosyl)amino-5-(4-nitrobenzoyl)thiazole]
[1]
  Inhibitory effect on adhesion: significant inhibitory effect
  inhibition at 10 µM: > 90%
[4]
  Inhibitory potency in HAI (in words): less potent than the unsubstituted phenyl analogue 8

## N#Cc1ccc(C(=O)c2cnc(N[C@H]3O[C@H](CO)[C@@H](O)[C@H](O)[C@@H]3O)s2)cc1 [Compound 20, 2-(α-D-mannopyranosyl)amino-5-(4-cyanobenzoyl)thiazole]
[4]
  Inhibitory potency in HAI (in words): less potent than the unsubstituted phenyl analogue 8

## Cc1ccc(C(=O)c2cnc(N[C@H]3O[C@H](CO)[C@@H](O)[C@H](O)[C@@H]3O)s2)cc1 [Compound 11, 2-(α-D-mannopyranosyl)amino-5-(4-methylbenzoyl)thiazole]
FimH
  Concentration blocking FimH binding towards oligomannose glycans: 50 nM

## O=C(c1cnc(N[C@H]2OC(CO)[C@@H](O)C(O)C2O)s1)C12CC3CC(CC(C3)C1)C2 (stereo partly drawn) [Compound 16, 5-((3r,5r,7r)-adamantane-1-carbonyl)-2-(α-D-mannopyranosyl)aminothiazole]
[1]
  Inhibitory effect on adhesion: significant inhibitory effect
[4]
  Inhibitory potency in HAI (in words): significant improvement

## CC(C)(C)C(=O)c1cnc(N[C@H]2OC(CO)[C@@H](O)C(O)C2O)s1 (stereo partly drawn) [Compound 9, 2-(α-D-mannopyranosyl)amin-5-tert-butylcarbonylthiazole]
FimH
  Concentration blocking FimH binding towards oligomannose glycans: 50 nM

## O=C(c1cccs1)c1cnc(N[C@H]2OC(CO)[C@@H](O)[C@H](O)C2O)s1 (mixture of isomers) [Compound 14, 2-(α-D-mannopyranosyl)amino-5-(thiophene-2-carbonyl)thiazole]
FimH
  Concentration blocking FimH binding towards oligomannose glycans: 50 nM

## O=C(c1ccncc1)c1cnc(N[C@H]2O[C@H](CO)[C@@H](O)[C@H](O)[C@@H]2O)s1 [Compound 17, 2-(α-D-mannopyranosyl)amino-5-isonicotinoylthiazole]
[1]
  inhibition at 10 µM: > 90%

## O=C(c1cnc(N[C@H]2O[C@H](CO)[C@@H](O)[C@H](O)[C@@H]2O)s1)C(F)(F)F [Compound 7, 2-(α-D-mannopyranosyl)amino-5-trifluoroacetylthiazole]
FimH
  Concentration blocking FimH binding towards oligomannose glycans: 50 nM
[4]
  Inhibitory potency in HAI (in words): less potent than HM; also recorded: significantly less potent than 6

## O=C(c1ccccc1)c1cnc(N[C@H]2O[C@H](CO)[C@@H](O)[C@H](O)[C@@H]2O)s1 [Compound 8, 2-(α-D-mannopyranosyl)amino-5-benzoylthiazole]
FimH
  Level of inhibition compared to the HM reference: significantly higher level of inhibition
  Concentration blocking FimH binding towards oligomannose glycans: 5 nM
[1]
  Inhibitory effect on adhesion: significant inhibitory effect
